Here are results for 25 compounds from patent US9522920B2, “Bromodomain inhibitors and uses thereof” (Constellation Pharmaceuticals, Inc., priority 2010, dated 2016).

Each structure is given as a SMILES string. Like-named read-outs stand apart in the source and are kept apart here. Where only a bound is given, the exact number is not on record here.

One test concerns IL-6 secretion. In words: Cell-based IL-6 quantification assay (ELISA, Mesoscale) in LPS-stimulated THP-1 cells. The conditions noted are these: read-out: IL6. As for the experimental part:
100,000 THP-1 cells were seeded in RPMI1640-10% FBS in 96-well plates. LPS (E. Coli Invitrogen) in RPMI-10% FBS at a final concentration of 4 μg/mL was added to the wells and the cells are then incubated in the presence of various concentrations of compounds for 16 h. Plates are spun ([…], 5 min), an aliquot of 25 uL supernatant is transferred in to an ELISA plate (Mesoscale technology, MSD) and the detection of IL-6 is performed using manufacturer's instructions. The amount of cells in each well is assessed using CellTiter-Glo® (Promega). The ratio of ELISA value/CellTiter-Glo value is used to calculate the percent of inhibition of IL-6 secretion.
Background: In an ELISA, binding on a coated surface is turned into a signal by an enzyme label.

The target of another test is T1, BRD4(BD1) (Homo sapiens, UniProt O60885).
T1 construct: His; made in house
In words: BRD4 AlphaLisa binding assay (Alphascreen). As to the method:
Specifically, in a 384 well ProxiPlate BRD4(BD1) (30 nM final) was combined with peptide (200 nM final) in 40 mM HEPES (pH 7.0), 40 mM NaCl, 1 mM DTT, 0.01% (w/v) BSA, and 0.008% (w/v) Brij-35 either in the presence of DMSO (final 1.2% DMSO) or compound dilution series in DMSO. After 20 minute incubation at room temperature Alpha streptavidin donor beads and AlphaLisa anti-Flag acceptor beads were added to a final concentration of 10 ug/mL each. After three hours equilibration plates were read on an Envision instrument and IC50s calculated using a four parameter non-linear curve fit.

For test [1], the system named is MYC mRNA. In words: cMyc RNA quantification assay (QuantiGene) in MV4:11 cells. The test is classed as cell-based. The conditions noted are these: Homo sapiens, MV4-11, 4 h, Table 14, MV4:11 cells, read-out: MYC-MV411. As to the method: (§1) MV4:11 (AML) or Raji (Burkitt's lymphoma) cells were seeded in a 96-well plate and incubated in the presence of various concentrations of compounds for 4 h. Relative mRNA levels were quantitated by using QuantiGene 2.0 assay (Affymetrix) according to the manufacturer's recommendation. Signals were detected by using an Envision plate reader (Perkin-Elmer). Biological duplicates were averaged and normalized to vehicle (DMSO) control to calculate percent MYC mRNA levels.

For test [2], the system named is MYC mRNA. In words: cMyc RNA quantification assay (QuantiGene) in Raji cells. The test is classed as cell-based. The settings on record: 4 h. As to the method:
as §1

Where [3] appears, read: Homo sapiens, THP-1, 16 h, Table 14, THP-1 cells, LPS, 16 h.
Setting [4] is: Table 14, BRD4 AlphaLisa Binding Assay, read-out: Alpha screen.
[5] abbreviates: Homo sapiens, THP-1, 16 h, Table 7, THP-1 cells, LPS 4 μg/mL, 16 h, normalised to CellTiter-Glo.
Setting [6] is: Table 6, BRD4(BD1) 30 nM, H4-tetraacetyl peptide 200 nM, read-out: BRD4 Alphascreen IC50.
Setting [7] is: Homo sapiens, Table 7, Raji (Burkitt's lymphoma) cells.
Setting [8] is: Table 7, THP-1 cells, LPS 4 μg/mL, 16 h, normalised to CellTiter-Glo.
The mark [9] stands for this setting: Table 7, Raji (Burkitt's lymphoma) cells.
Where [10] appears, read: Homo sapiens, Table 14, Raji cells.

On to `Cc1noc2c1-c1ccc(F)cc1C(c1ccc(C#N)cc1)=N[C@H]2CC(N)=O` [Compound 212], for which the IC50 with IL-6 secretion (setting [3]), at BRD4(BD1) (setting [4]) and in the test on MYC mRNA [1] was under 500 nM each time.

`COc1ccc2c(n1)C(c1ccc(Cl)cc1)=NCc1onc(C)c1-2` [Compound 242, 6-(4-Chlorophenyl)-8-methoxy-1-methyl-4H-isoxazolo[5,4-c]pyrido[3,2-e]azepine]: the IC50 is over 1000 nM in the test on IL-6 secretion (setting [3]), 500 to 1000 nM at BRD4(BD1) (setting [4]) and over 1000 nM in the test on MYC mRNA [1].

On to `Cc1noc2c1-c1ccccc1C(c1ccc(Cl)cc1)=N[C@H]2CC(N)C(F)(F)F` (mixture of isomers) [Compound 232, Mixture of (2S)-3-((4S)-6-(4-chlorophenyl)-1-methyl-4H-benzo[c]isoxazolo[4,5-e]azepin-4-yl)-1,1,1-trifluoropropan-2-amine and (2R)-3-((4S)-6-(4-chlorophenyl)-1-methyl-4H-benzo[c]isoxazolo[4,5-e]azepin-4-yl)-1,1,1-trifluoropropan-2-amine], for which the IC50 in the test with IL-6 secretion (setting [3]), on BRD4(BD1) (setting [4]) and in the test on MYC mRNA [1] was over 1000 nM in each case.

Take `Cc1noc2c1-c1ccc(Cl)cc1C(c1ccc(F)cc1)=NC21CC1` [Compound 250, 8-Chloro-6-(4-fluorophenyl)-1-methylspiro[benzo[c]isoxazolo[4,5-e]azepine-4,1′-cyclopropane]]: the IC50 in the test on IL-6 secretion (setting [3]) and in the test with MYC mRNA [1] was over 1000 nM throughout.

As to `Cc1noc2c1-c1ccc(-c3ccc(N)nc3)cc1C(c1ccc(F)cc1)=NC21CC1` [Compound 251, 5-(6-(4-Fluorophenyl)-1-methylspiro[benzo[c]isoxazolo[4,5-e]azepine-4,1′-cyclopropan]-8-yl)pyridin-2-amine], the IC50 with IL-6 secretion (setting [3]) and in the test with MYC mRNA [1] was under 500 nM in each case.

As for `Cc1noc2c1-c1cccc(Cl)c1C(c1ccncc1)=N[C@H]2CC(N)=O` [Compound 137], the IC50 in the test on IL-6 secretion (setting [5]) is under 500 nM; at BRD4(BD1) (setting [6]) it was under 500 nM; in the test on MYC mRNA [2] (setting [7]), 500 to 1000 nM.

For the compound `Cc1cc(Cl)ccc1C1=NC(CC(N)=O)c2onc(C)c2-c2sc(C)c(C)c21` (stereo not shown) [Compound 112], the IC50 with IL-6 secretion (setting [5]), on BRD4(BD1) (setting [6]) and with MYC mRNA [2] (setting [7]) was under 500 nM throughout.

Consider `CNc1nccc2c1C(c1ccc(Cl)cc1)=NCc1onc(C)c1-2` [Compound 173, 6-(4-Chlorophenyl)-N,1-dimethyl-4H-isoxazolo[5,4-c]pyrido[4,3-e]azepin-7-amine], for which the IC50 in the test on IL-6 secretion (setting [5]), on BRD4(BD1) (setting [6]) and with MYC mRNA [2] (setting [7]) was under 500 nM each time.

In the case of `Cc1noc2c1-c1ccnc(N)c1C(c1ccc(Cl)cc1)=NC2` [Compound 172, 6-(4-Chlorophenyl)-1-methyl-4H-isoxazolo[5,4-c]pyrido[4,3-e]azepin-7-amine], the IC50 was under 500 nM in the test with IL-6 secretion (Homo sapiens, THP-1, 16 h); under 500 nM at BRD4(BD1) (setting [6]); 500 to 1000 nM in the test on MYC mRNA [2] (setting [7]).

As to `CCNC(=O)C[C@@H]1N=C(c2ccc(Cl)cc2)c2ccccc2-c2c(C)noc21` [Compound 159, 2-((4S)-6-(4-chlorophenyl)-1-methyl-4H-benzo[c]isoxazolo[4,5-e]azepin-4-yl)-N-ethylacetamide], the IC50 in the test on IL-6 secretion (setting [5]), on BRD4(BD1) (setting [6]) and with MYC mRNA [2] (setting [7]) was under 500 nM in each case.

On to `Cc1cccc2c1C(c1ccc(C(N)=O)cc1)=N[C@@H](CC(N)=O)c1onc(C)c1-2` [Compound 134], for which the IC50 in the test on IL-6 secretion (setting [8]) was under 500 nM; at BRD4(BD1) (setting [6]) it was under 500 nM; with MYC mRNA [2] (setting [9]), 500 to 1000 nM.

Take `Cc1noc2c1-c1sc(C)c(C)c1C(c1ccc(=O)n(C)c1)=NC2CC(N)=O` (stereo not shown) [Compound 120]: the IC50 with IL-6 secretion (setting [5]) is under 500 nM; on BRD4(BD1) (setting [6]) it was under 500 nM; in the test with MYC mRNA [2] (setting [7]), 500 to 1000 nM.

Turning to `CCNC(=O)C[C@@H]1N=C(c2ccc(Cl)cc2)c2ccccc2-c2c1noc2C` [Compound 163, 2-((4S)-6-(4-chlorophenyl)-1-methyl-4H-benzo[c]isoxazolo[4,3-e]azepin-4-yl)-N-ethylacetamide], the IC50 with IL-6 secretion (setting [5]) is under 500 nM; on BRD4(BD1) (setting [6]), under 500 nM; with MYC mRNA [2] (setting [7]) it was over 1000 nM.

Consider `Cc1noc2c1-c1sc(C)c(C)c1C(c1ccc(Cl)cn1)=NC2CC(N)=O` (stereo not shown) [Compound 103], for which the IC50 with IL-6 secretion (setting [5]), on BRD4(BD1) (setting [6]) and in the test with MYC mRNA [2] (setting [7]) was under 500 nM throughout.

For the compound `Cc1noc2c1-c1ccccc1C(c1ccc(Cl)cc1)=N[C@H]2CC(=O)NCCF` [Compound 199], the IC50 in the test on IL-6 secretion (setting [3]), on BRD4(BD1) (setting [4]) and in the test with MYC mRNA [2] (setting [10]) was under 500 nM each time.

Turning to `Cc1noc2c1-c1ccc(Cl)cc1C(c1ccc(C(F)(F)F)cc1)=N[C@H]2CC(N)=O` [Compound 201], the IC50 in the test on IL-6 secretion (setting [3]) was under 500 nM; on BRD4(BD1) (setting [4]), under 500 nM; in the test with MYC mRNA [2] (setting [10]), 500 to 1000 nM.

As to `COCCNC(=O)C[C@@H]1N=C(c2ccc(C#N)cc2)c2ccccc2-c2c(C)noc21` [Compound 150], the IC50 in the test on IL-6 secretion (setting [8]), on BRD4(BD1) (setting [6]) and in the test on MYC mRNA [2] (setting [9]) was under 500 nM each time.

For the compound `Cc1noc2c1-c1sc(C)c(C)c1C(c1ccc(Cl)cc1)=N[C@H]2Cc1nccs1` [Compound 188, (6S)-4-(4-chlorophenyl)-2,3,9-trimethyl-6-(thiazol-2-ylmethyl)-6H-isoxazolo[5,4-c]thieno[2,3-e]azepine], the IC50 is under 500 nM in the test on IL-6 secretion (setting [5]), under 500 nM on BRD4(BD1) (setting [6]) and over 1000 nM with MYC mRNA [2] (setting [7]).

Turning to `Cc1noc2c1-c1ccc(OC(F)(F)F)cc1C(c1ccc(Cl)cc1)=N[C@H]2CC(N)=O` [Compound 197], the IC50 with IL-6 secretion (setting [3]), on BRD4(BD1) (setting [4]) and in the test with MYC mRNA [2] (setting [10]) was under 500 nM throughout.

Turning to `Cc1noc2c1-c1sc(C)c(C)c1C(c1ccc(C(N)=O)cc1)=NC2CC(N)=O` (stereo not shown) [Compound 116], the IC50 in the test with IL-6 secretion (setting [5]), on BRD4(BD1) (setting [6]) and with MYC mRNA [2] (setting [7]) was under 500 nM each time.

Turning to `CCNC(=O)C[C@@H]1N=C(c2ccc(Cl)cc2)c2cc(OC)ccc2-c2c(C)noc21` [Compound 160, 2-((4S)-6-(4-chlorophenyl)-8-methoxy-1-methyl-4H-benzo[c]isoxazolo[4,5-e]azepin-4-yl)-N-ethylacetamide], the IC50 in the test on IL-6 secretion (setting [5]), on BRD4(BD1) (setting [6]) and in the test with MYC mRNA [2] (setting [7]) was under 500 nM throughout.

With `Cc1noc2c1-c1ccc(Cl)cc1C(c1ccc(C#N)cc1)=N[C@H]2CC(N)=O` [Compound 142], the results for the IC50 with IL-6 secretion (setting [8]), at BRD4(BD1) (setting [6]) and in the test with MYC mRNA [2] (setting [9]) were under 500 nM, under 500 nM and 500 to 1000 nM, respectively.

Consider `Cc1noc2c1-c1sc(C)c(C)c1C(c1ccc(Cl)cc1)=N[C@H]2Cc1ncc[nH]1` [Compound 187, (6S)-6-((1H-imidazol-2-yl)methyl)-4-(4-chlorophenyl)-2,3,9-trimethyl-6H-isoxazolo[5,4-c]thieno[2,3-e]azepine], for which the IC50 with IL-6 secretion (Homo sapiens, THP-1, 16 h) was over 1000 nM; on BRD4(BD1) (setting [6]) it was under 500 nM; in the test with MYC mRNA [2] (setting [7]), over 1000 nM.

Take `Cc1noc2c1-c1ccccc1C(N1CCOCC1)=N[C@H]2CC(N)=O` [Compound 152]: the IC50 with IL-6 secretion (setting [5]), on BRD4(BD1) (setting [6]) and in the test with MYC mRNA [2] (setting [7]) was over 1000 nM each time.

Regarding `Cc1noc2c1-c1sc(C)c(C)c1C(Oc1ccccc1)=N[C@H]2CC(N)=O` [Compound 186, 2-((6S)-2,3,9-trimethyl-4-phenoxy-6H-isoxazolo[5,4-c]thieno[2,3-e]azepin-6-yl)acetamide], the IC50 was 500 to 1000 nM with IL-6 secretion (Homo sapiens, THP-1, 16 h); 500 to 1000 nM on BRD4(BD1) (setting [6]); over 1000 nM with MYC mRNA [2] (setting [7]).
